According to PubChem BioAssay AID1963969 (Molecular Pharmacology Branch, DTP, NCI, 2024):

Test system: 817829-284-R-J1-PDC multi-cell spheroid viability
Assay: Anticancer human tumor 817829-284-R-J1-PDC patient-derived colon adenocarcinoma cell line growth inhibition [PI3K]
Conditions: for IC50: curve of first compound; for viability, T/C: stronger effect = lower value; active = viability on the fitted dose curve at most 10% of control; inactive = the rest
Summary of the method: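 We assembled tumor spheroids that included a stromal compartment of HUVEC and MSCs, then exposed them to targeted agents alone and together with PI3K pathway inhibitors. Concentration series descended by half-log from clinically achievable Cmax levels. Viability served as the endpoint.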

[1] = second compound 0.00316 µM, first compound 0.0316 µM
[2] = second compound 0.00316 µM, first compound 0.1 µM
[3] = second compound 0.00316 µM, first compound 0.316 µM
[4] = second compound 0.00316 µM, first compound 1 µM
[5] = second compound 0.00316 µM, first compound 3.16 µM
[6] = second compound 0.00316 µM, first compound 10 µM
[7] = second compound 0.01 µM, first compound 0.0316 µM
[8] = second compound 0.01 µM, first compound 0.1 µM
[9] = second compound 0.01 µM, first compound 0.316 µM
[10] = second compound 0.01 µM, first compound 1 µM
[11] = second compound 0.01 µM, first compound 3.16 µM
[12] = second compound 0.01 µM, first compound 10 µM
[13] = second compound 0.0316 µM, first compound 0.0316 µM
[14] = second compound 0.0316 µM, first compound 0.1 µM
[15] = second compound 0.0316 µM, first compound 0.316 µM
[16] = second compound 0.0316 µM, first compound 1 µM
[17] = second compound 0.0316 µM, first compound 3.16 µM
[18] = second compound 0.0316 µM, first compound 10 µM
[19] = second compound 0.1 µM, first compound 0.0316 µM
[20] = second compound 0.1 µM, first compound 0.1 µM
[21] = second compound 0.1 µM, first compound 0.316 µM
[22] = second compound 0.1 µM, first compound 1 µM
[23] = second compound 0.1 µM, first compound 3.16 µM
[24] = second compound 0.1 µM, first compound 10 µM
[25] = second compound 0.316 µM, first compound 0.0316 µM
[26] = second compound 0.316 µM, first compound 0.1 µM
[27] = second compound 0.316 µM, first compound 0.316 µM
[28] = second compound 0.316 µM, first compound 1 µM
[29] = second compound 0.316 µM, first compound 3.16 µM
[30] = second compound 0.316 µM, first compound 10 µM
[31] = second compound 1 µM, first compound 0.0316 µM
[32] = second compound 1 µM, first compound 0.1 µM
[33] = second compound 1 µM, first compound 0.316 µM
[34] = second compound 1 µM, first compound 1 µM
[35] = second compound 1 µM, first compound 3.16 µM
[36] = second compound 1 µM, first compound 10 µM
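Also: spheroids exposed to agents for seven days before readout.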
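For viability, T/C in this document: percent of vehicle DMSO control viability which is 100%.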

CNC(=O)c1ccc(N2C(=S)N(c3ccc(C#N)c(C(F)(F)F)c3)C(=O)C2(C)C)cc1F + COc1c(OCCCN2CCOCC2)ccc2c3n(c(=NC(=O)c4cnc(N)nc4)nc12)CCN3
3040 nM: IC50 (second compound 0.0316 µM)
> 10000 nM: IC50 (second compound 0.00316 µM) | IC50 (second compound 0.01 µM)
< 31.6 nM: IC50 (second compound 0.1 µM) | IC50 (second compound 0.316 µM) | IC50 (second compound 1 µM)
inactive: viability, T/C [1] 72.7% | viability, T/C [2] 107% | viability, T/C [3] 118% | viability, T/C [4] 110% | viability, T/C [5] 70.9% | viability, T/C [6] 55.9% | viability, T/C [7] 102% | viability, T/C [8] 107% | viability, T/C [9] 117% | viability, T/C [10] 58.2% | viability, T/C [11] 81.3% | viability, T/C [12] 55% | viability, T/C [13] 52.3% | viability, T/C [14] 61.2% | viability, T/C [15] 73.6% | viability, T/C [16] 105% | viability, T/C [17] 49.2% | viability, T/C [18] 27.3% | viability, T/C [19] 35.4% | viability, T/C [20] 38.6% | viability, T/C [21] 31.2% | viability, T/C [22] 36.3% | viability, T/C [23] 31.5% | viability, T/C [24] 21.7% | viability, T/C [25] 19.9% | viability, T/C [26] 23% | viability, T/C [27] 23.2% | viability, T/C [28] 18.5% | viability, T/C [29] 19.1% | viability, T/C [30] 17.7% | viability, T/C [31] 11.2% | viability, T/C [32] 12.2% | viability, T/C [33] 9.45% | viability, T/C [34] 13.1% | viability, T/C [35] 11.1% | viability, T/C [36] 9.44%

CC1(C)CCC(CN2CCN(c3ccc(C(=O)NS(=O)(=O)c4ccc(NCC5CCOCC5)c([N+](=O)[O-])c4)c(Oc4cnc5[nH]ccc5c4)c3)CC2)=C(c2ccc(Cl)cc2)C1 + COc1c(OCCCN2CCOCC2)ccc2c3n(c(=NC(=O)c4cnc(N)nc4)nc12)CCN3
inactive: viability, T/C [1] 59.2% | viability, T/C [2] 90.8% | viability, T/C [3] 91.6% | viability, T/C [4] 81.9% | viability, T/C [5] 93.3% | viability, T/C [6] 113% | viability, T/C [7] 80.5% | viability, T/C [8] 74.1% | viability, T/C [9] 75.3% | viability, T/C [10] 64.3% | viability, T/C [11] 66.2% | viability, T/C [12] 69.2% | viability, T/C [13] 52.7% | viability, T/C [14] 63.2% | viability, T/C [15] 72.7% | viability, T/C [16] 60.1% | viability, T/C [17] 63% | viability, T/C [18] 44.5% | viability, T/C [19] 31.8% | viability, T/C [20] 31.6% | viability, T/C [21] 49.6% | viability, T/C [22] 33.3% | viability, T/C [23] 45.3% | viability, T/C [24] 40.1% | viability, T/C [25] 18.5% | viability, T/C [26] 20.7% | viability, T/C [27] 23.2% | viability, T/C [28] 22.8% | viability, T/C [29] 24.7% | viability, T/C [30] 19.7% | viability, T/C [31] 12.9% | viability, T/C [32] 11.1% | viability, T/C [33] 13.6% | viability, T/C [34] 14.4% | viability, T/C [35] 13.4% | viability, T/C [36] 11.7%
> 10000 nM: IC50 (second compound 0.00316 µM) | IC50 (second compound 0.01 µM) | IC50 (second compound 0.0316 µM)
< 31.6 nM: IC50 (second compound 0.1 µM) | IC50 (second compound 0.316 µM) | IC50 (second compound 1 µM)

CC(C)NCC(C(=O)N1CCN(c2ncnc3c2C(C)CC3O)CC1)c1ccc(Cl)cc1 (stereo not drawn) + COc1c(OCCCN2CCOCC2)ccc2c3n(c(=NC(=O)c4cnc(N)nc4)nc12)CCN3
88.4 nM: IC50 (second compound 0.01 µM)
< 31.6 nM: IC50 (second compound 0.1 µM) | IC50 (second compound 0.316 µM) | IC50 (second compound 1 µM)
active: viability, T/C [24] 8.69% | viability, T/C [30] 7.04% | viability, T/C [34] 10% | viability, T/C [35] 6.2% | viability, T/C [36] 5%
230 nM: IC50 (second compound 0.00316 µM)
inactive: viability, T/C [1] 78.3% | viability, T/C [2] 51.8% | viability, T/C [3] 54.5% | viability, T/C [4] 30.8% | viability, T/C [5] 23% | viability, T/C [6] 15.1% | viability, T/C [7] 65% | viability, T/C [8] 49.1% | viability, T/C [9] 24.8% | viability, T/C [10] 21.6% | viability, T/C [11] 21.2% | viability, T/C [12] 10.2% | viability, T/C [13] 72.6% | viability, T/C [14] 40.6% | viability, T/C [15] 29.9% | viability, T/C [16] 21.4% | viability, T/C [17] 22.9% | viability, T/C [18] 9.33% | viability, T/C [19] 40.7% | viability, T/C [20] 23.7% | viability, T/C [21] 26.5% | viability, T/C [22] 15.4% | viability, T/C [23] 13.4% | viability, T/C [25] 20% | viability, T/C [26] 19.8% | viability, T/C [27] 23.6% | viability, T/C [28] 16.6% | viability, T/C [29] 8.4% | viability, T/C [31] 12.4% | viability, T/C [32] 12.3% | viability, T/C [33] 13.2%
76.7 nM: IC50 (second compound 0.0316 µM)

CC(=O)c1c(C)c2cnc(Nc3ccc(N4CCNCC4)cn3)nc2n(C2CCCC2)c1=O
inactive: viability, T/C (compound 0.0316 µM) 54.6% [middle of 4 runs] | viability, T/C (compound 0.1 µM) 39.3% [middle of 4 runs]
